{"source": "patent US4430355A", "about": "“Condensed isothiazolo-3 (2H)-one-1-1-dioxides” (priority 1977, dated 1984)", "key": {"[1]": {"experiment": "Determination of the threshold concentration (taste testers, Schutz and Pilgrim method)", "parameters": "key: mean of 5 testers; 0 = not sweet, 3 = very sweet", "experimental": "From novel compounds A, B, C, D, E and F and from known comparison compounds U, V and W aqueous solutions in concentrations of 1:12500, 1:25000, 1:50000, 1:100000 and 1:200000 were prepared and evaluated by each of 5 taste testers according to the following criteria: Very sweet (=3 points); medium sweet (=2 points), slightly sweet (=1 point) and not sweet (=0 point). The tests were carried out according to the method of H. G. Schutz and F. J. Pilgrim [Food Research 22, 206 (1957)]. The dilution with perceptible sweetness was defined as the concentration at which the average value reached the evaluation points 1.0 or higher."}, "[2]": {"experiment": "Determination of the relative sweetening power in comparison to saccharose (taste testers, 3% saccharose solution)", "source_text": "The relative sweetening power (often also defined as degree of sweetness) of sweetening agents in comparison to saccharose (cane sugar) varies with the concentrations within wide limits. Thus, in the usual concentrations (corresponding to a 2-10% solution of saccharose) the relative sweetening power of saccharin varies from 200 to 700. Therefore, for the determination of the relative sweetening power of the above-mentioned compounds a 3% aqueous solution of saccharose was always used for comparison.\nThe further determination of the relative sweetening power was continued according to the methods of R. Pauli [Chemiker Zeitung 44, 744 (1920)] and T. Paul [Chemiker-Zeitung 45 38 (1921)]. Each test series was tested by 4 taste testers."}, "[3]": {"experiment": "Evaluation of taste quality", "source_text": "They often have a side-taste or after-taste. Novel compounds A to F are, however, characterized by a very pure sweet taste."}, "mouse": {"test_system": "mouse", "experiment": "Orienting acute toxicity, oral, mouse", "format": "in vivo", "details": "6 animals", "experimental": "The acute toxicity was determined after oral administration to male and female mice and to male and female rats. The substances were given in an aqueous solution or as a suspension in tylose."}, "[4]": {"test_system": "Salmonella typhimurium TA 98, TA 100, TA 1535, TA 1537, TA 1538", "experiment": "AMES-system, test for mutagenic effects, Salmonella typhimurium", "format": "cell-based", "experimental": "Compounds C and D were tested in the AMES-system [Mutation Research 31, 347-364 (1975)] with regard to their mutagenic properties. In order to show the whole spectrum of induced molecular DNA-damages (base substitutions, frame-shift mutations, deletions) the auxotrophic bacterial strains Salmonella typhimurium TA 98, TA 100 and Escherichia coli WP 2 (P) were used as genetic indicators. The strains Salmonella typhimurium TA 1535, TA 1537 and TA 1538 were additionally used in the test of compound C.\n(§1) The test for all microorganisms were carried out in a way such that the influence of a microsomal enzyme system, together with the corresponding co-factors, could be tested with regard to the test substance, and to determine the differences in enzyme induction. The tests were performed without an activating system and in the presence of an activating system. For the in vitro-activation, S-9 supernatants (fraction of the endoplasmatic reticulum) of normal, i.e. not pre-treated rats and of Aroclor 1254 (500 mg/kg) induced rats were used. From the S-9 induced fraction, 3 different concentration levels were tested.\n(§2) The substance concentrations of compound C were 0.1 and 0.5 mgm/plate and the concentrations of compound D were 5, 10, 15 and 20 mg/plate."}, "[5]": {"test_system": "Escherichia coli WP 2 (P)", "experiment": "AMES-system, test for mutagenic effects, Escherichia coli", "format": "cell-based", "experimental": "In order to show the whole spectrum of induced molecular DNA-damages (base substitutions, frame-shift mutations, deletions) the auxotrophic bacterial strains Salmonella typhimurium TA 98, TA 100 and Escherichia coli WP 2 (P) were used as genetic indicators.\nas §1, with “For the in vitro-activation, S-9 supernatants (fraction of the endoplasmatic reticulum) of normal, i.e. not pre-treated rats and of Aroclor 1254 (500 mg/kg) induced rats were used.” left out"}, "microorganism growth": {"test_system": "microorganism growth", "experiment": "Series dilution essay, inhibition of the microorganism growth", "format": "cell-based", "details": "highest dosages (C 0.5 mgm/plate, D 20 mg/plate)", "experimental": "as §2"}, "[6]": {"details": "higher dosage levels; cited from earlier work"}, "[7]": {"details": "value given on page 6 of German Offenlegungsschrift 2,534,689; cited from earlier work"}, "[8]": {"details": "compared with 3% aqueous solution of saccharose"}}, "note": "Like-named read-outs stand apart in the source and are kept apart here."}
{"smiles": "Cc1cc2c(o1)S(=O)(=O)NC2=O", "note": "[A, 5-Methyl-furo[3,2-d]isothiazole-3-(2H)-one-1,1-dioxide]", "values": [{"measurement": "Average Value of Evaluation Points", "setting": "[1]; concentration 1:12500", "value": 1.4}, {"measurement": "Average Value of Evaluation Points", "setting": "[1]; concentration 1:25000", "value": 0.2}, {"measurement": "Relative Sweetening Power (Saccharose = 1)", "setting": "[2]; [8]", "value": 150}, {"measurement": "taste quality compared with saccharose (cane sugar)", "setting": "[3]", "value": "achieve the taste quality of saccharose"}, {"measurement": "Animals which died within the observation time, 1 day", "setting": "mouse; 1000 mgm/kg oral", "value": 0, "unit": "animals"}, {"measurement": "Animals which died within the observation time, 7 days", "setting": "mouse; 1000 mgm/kg oral", "value": 0, "unit": "animals"}]}
{"smiles": "Cc1cc2c(s1)S(=O)(=O)NC2=O", "note": "[B, 5-Methyl-thieno[3,2-d]isothiazole-3(2H)-one-1,1-dioxide]", "values": [{"measurement": "Average Value of Evaluation Points", "setting": "[1]; concentration 1:25000", "value": 2.2}, {"measurement": "Average Value of Evaluation Points", "setting": "[1]; concentration 1:50000", "value": 1.4}, {"measurement": "Average Value of Evaluation Points", "setting": "[1]; concentration 1:100000", "value": 0.2}, {"measurement": "Relative Sweetening Power (Saccharose = 1)", "setting": "[2]; [8]", "value": 550}, {"measurement": "Animals which died within the observation time, 1 day", "setting": "mouse; 5000 mgm/kg oral", "value": 0, "unit": "animals"}, {"measurement": "Animals which died within the observation time, 7 days", "setting": "mouse; 5000 mgm/kg oral", "value": 0, "unit": "animals"}]}
{"smiles": "Cc1cc2c(s1)S(=O)(=O)NC2=O.[Ca]", "note": "[D, 5-Methyl-thieno[3,2-d]isothiazole-3(2H)-one-1,1-dioxide calcium salt]", "values": [{"measurement": "Average Value of Evaluation Points", "setting": "[1]; concentration 1:25000", "value": 1.8}, {"measurement": "Average Value of Evaluation Points", "setting": "[1]; concentration 1:50000", "value": 1.0}, {"measurement": "Average Value of Evaluation Points", "setting": "[1]; concentration 1:100000", "value": 0.0}, {"measurement": "Relative Sweetening Power (Saccharose = 1)", "setting": "[2]; [8]", "value": 500}, {"measurement": "Animals which died within the observation time, 1 day", "setting": "mouse; 5000 mgm/kg oral", "value": 0, "unit": "animals"}, {"measurement": "Animals which died within the observation time, 7 days", "setting": "mouse; 5000 mgm/kg oral", "value": 0, "unit": "animals"}, {"measurement": "release of base substitutions", "setting": "[4]; S. typhimurium TA 1535, TA 100", "value": "do not release base substitutions"}, {"measurement": "release of frame-shift mutations", "setting": "[4]; S. typhimurium TA 1537, TA 1538, TA 98", "value": "do not release"}, {"measurement": "increase in the spontaneous mutation rate", "setting": "[4]; Salmonella strains, C 0.1 and 0.5 mgm/plate, D 5-20 mg/plate, with and without activating system", "value": "did not lead to an increase"}, {"measurement": "colonies counted on the substance plates", "setting": "[4]; all test strains", "value": "within the spontaneous range"}, {"measurement": "effect of the enzyme induction and of the activating fraction on the reverse mutation rate", "setting": "[4]; all tested strains, S-9 of normal and Aroclor 1254 induced rats", "value": "not detectable"}, {"measurement": "mutagenic potential", "setting": "[4]; conclusion over all tested strains", "value": "do not indicate a mutagenic potential"}, {"measurement": "release of base substitutions", "setting": "[5]; E. coli WP2 (P)", "value": "do not release base substitutions"}, {"measurement": "increase in the spontaneous mutation rate", "setting": "[5]; E. coli WP 2 (P), C 0.1 and 0.5 mgm/plate, D 5-20 mg/plate, with and without activating system", "value": "did not lead to an increase"}, {"measurement": "inhibition of the microorganism growth", "setting": "microorganism growth", "value": "did not show any inhibition"}]}
{"smiles": "Cc1sc2c(c1C)C(=O)NS2(=O)=O", "note": "[E, 4,5-Dimethyl-thieno[3,2-d]isothiazole-3(2H)-one-1,1-dioxide]", "values": [{"measurement": "Average Value of Evaluation Points", "setting": "[1]; concentration 1:50000", "value": 2.2}, {"measurement": "Average Value of Evaluation Points", "setting": "[1]; concentration 1:100000", "value": 1.6}, {"measurement": "Average Value of Evaluation Points", "setting": "[1]; concentration 1:200000", "value": 0.4}, {"measurement": "Relative Sweetening Power (Saccharose = 1)", "setting": "[2]; [8]", "value": 1050}, {"measurement": "Animals which died within the observation time, 1 day", "setting": "mouse; 1000 mgm/kg oral", "value": 0, "unit": "animals"}, {"measurement": "Animals which died within the observation time, 7 days", "setting": "mouse; 1000 mgm/kg oral", "value": 0, "unit": "animals"}]}
{"smiles": "Cc1sc2c(c1C)C(=O)NS2(=O)=O.[Na]", "note": "[F, 4,5-Dimethyl-thieno[3,2-d]isothiazole-3(2H)-one-1,1-dioxide sodium salt]", "values": [{"measurement": "Average Value of Evaluation Points", "setting": "[1]; concentration 1:50000", "value": 2.0}, {"measurement": "Average Value of Evaluation Points", "setting": "[1]; concentration 1:100000", "value": 1.4}, {"measurement": "Average Value of Evaluation Points", "setting": "[1]; concentration 1:200000", "value": 0.2}, {"measurement": "Relative Sweetening Power (Saccharose = 1)", "setting": "[2]; [8]", "value": 1000}]}
{"smiles": "O=S(=O)(O)NC1CCCCC1", "note": "[U, Cyclamate, reference compound]", "values": [{"measurement": "Average Value of Evaluation Points", "setting": "[1]; concentration 1:12500", "value": 0.4}, {"measurement": "Relative Sweetening Power (Saccharose = 1)", "setting": "[2]", "value": 60}, {"measurement": "safety as sweetening agent", "setting": "[6]", "value": "not entirely safe"}]}
{"smiles": "O=C1NS(=O)(=O)c2ccccc21.[Na]", "note": "[W, Saccharin sodium, reference compound]", "values": [{"measurement": "Average Value of Evaluation Points", "setting": "[1]; concentration 1:25000", "value": 2.2}, {"measurement": "Average Value of Evaluation Points", "setting": "[1]; concentration 1:50000", "value": 1.2}, {"measurement": "Average Value of Evaluation Points", "setting": "[1]; concentration 1:100000", "value": 0.0}, {"measurement": "Relative Sweetening Power (Saccharose = 1)", "setting": "[2]; [8]", "value": 550}]}
{"smiles": "O=C1NS(=O)(=O)c2sccc21", "note": "[X, Thieno[3,2-d]isothiazole-3(2H)-one-1,1-dioxide]", "values": [{"measurement": "Relative Sweetening Power (Saccharose = 1)", "setting": "[7]", "value": 350}]}
